How the values were obtained:
[1] = target: T1, human β2-adrenergic receptor (Homo sapiens, UniProt P07550); test: cAMP accumulation (SPA) in CHO cells transfected with human β2 adrenergic receptor; type: cell-based; conditions: for beta-2 IA (maximal response relative to isoproterenol at 10^-5 M): fraction of maximal isoproterenol response
T1 construct: expressed in transfected cells; host or cells: CHO cells
Method: (§1) The ability of compounds of this invention to treat or inhibit disorders related to insulin resistance or hyperglycemia was established with representative compounds of this invention in the following standard pharmacological test procedures, which measured the binding selectivity to the β1, β2, and β3 adrenergic receptors. Binding to the receptors was measured in Chinese Hamster ovary (CHO) cells that were transfected with adrenergic receptors. The following briefly summarizes the procedures used and results obtained.
(§2) Transfection of CHO cells with β1 and β2 adrenergic receptors: CHO cells were transfected with human β1- or β2-adrenergic receptors as described in Tate, K. M., Eur. J. Biochem., 196:357-361 (1991).
(§3) Binding Procedure: Clones expressing receptor levels of 70 to 110 fmoles/mg protein were used in the test procedures. CHO cells were grown in 24-well tissue culture plates in Dulbecco's Modified Eagle Media with 10% fetal bovine serum, MEM non-essential amino acids, Penicillin-Streptompycin and Geneticin. On the day of test procedure, growth medium was replaced with preincubation media (Dulbecco's Modified Eagle Media and incubated for 30 minutes at 37° C. Preincubation medium was replaced with 0.2 ml treatment medium containing DMEM media containing 250 μM IBMX (isobutyl-1-methylxantine) plus 1 mM ascorbic acid with test compound dissolved in DMSO. Test compounds were tested over a concentration range of 10^−9 M to 10^−5 M for β3 cells and 10^−8 to 10^−4 M for β1 and β2 transfected cells. Isoproterenol (10^−5 M) was used as an internal standard for comparison of activity. Cells were incubated at 37° C. on a rocker for 30 min with the β3 cells and 15 min for […]. Incubation was stopped with the addition of 0.2N HCl and neutralized with 2.5N NaOH. The plates, containing the cells and neutralized media, were stored at −20 degrees celsius until ready to test for cAMP using the SPA test kit (Amersham).
(§4) Data Analysis and Results: Data collected from the SPA test procedure were analyzed as per cent of the maximal isoproterenol response at 10^−5 M. Activity curves were plotted using the SAS statistical and graphics software. EC50 values were generated for each compound and the maximal response (IA) developed for each compound is compared to the maximal response of isoproternol at 10^−5 M from the following formula: [formula]

[2] = target: T2, human β3 adrenergic receptor (Homo sapiens, UniProt P13945); test: cAMP accumulation (SPA) in CHO cells transfected with human β3 adrenergic receptor; type: cell-based; conditions: for EC50 / beta-3 IA (maximal response relative to isoproterenol at 10^-5 M): CHO cells, cAMP; for EC50: 30 min incubation, read-out: beta-3 EC50; for beta-3 IA (maximal response relative to isoproterenol at 10^-5 M): fraction of maximal isoproterenol response
T2 construct: Full length β3 AR clones (402 amino acids) containing the last 6 amino acids of hβ3_AR are prepared; expressed in transfected cells; host or cells: CHO cells
T2 sequence (P13945 whole entry): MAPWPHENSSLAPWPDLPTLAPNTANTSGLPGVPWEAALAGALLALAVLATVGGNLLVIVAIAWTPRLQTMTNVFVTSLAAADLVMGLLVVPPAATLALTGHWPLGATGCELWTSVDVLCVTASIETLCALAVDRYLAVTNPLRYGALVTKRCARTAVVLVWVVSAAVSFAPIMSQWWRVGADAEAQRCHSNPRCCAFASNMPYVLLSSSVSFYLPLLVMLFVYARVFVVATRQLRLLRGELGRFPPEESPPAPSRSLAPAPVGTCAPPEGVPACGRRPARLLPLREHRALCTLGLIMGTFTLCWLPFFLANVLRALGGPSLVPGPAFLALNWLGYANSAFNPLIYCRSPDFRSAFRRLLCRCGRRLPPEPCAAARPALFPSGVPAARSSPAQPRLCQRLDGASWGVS
Method: as §1
Cloning of Human β3-AR Genomic DNA: cDNA was constructed by ligating four polymerase chain reaction (PCR) products using the following primers: an ATG-NarI fragment, sense primer 5′-[…]3′ and anti-sense primer 5′[…]3′; a NarI-AccI fragment, 5′[…]3′ as sense and 5′[…]3′ as anti-sense primer; an Accli-Styl fragment, sense primer 5′[…]3′ and anti-sense primer 5′[…]3′ and a Styl-TAG fragment, with sense primer 5′[…]3′ and anti-sense primer 5′[…]3′. The corresponding primer sequences are described in Mantzoros, C. S., et.al., Diabetes 45: 909-914 (1996). The four fragments are ligated into a pUC 18 plasmid (Gibco-BRL) and sequenced. Full length β3 AR clones (402 amino acids) containing the last 6 amino acids of hβ3_AR are prepared with the β3-βARpcDNA3 from ATTC.
as §3, §4

[3] = target: T3, human β1-adrenergic receptor (Homo sapiens, UniProt P08588); test: cAMP accumulation (SPA) in CHO cells transfected with human β1 adrenergic receptor; type: cell-based; conditions: for beta-1 IA (maximal response relative to isoproterenol at 10^-5 M): fraction of maximal isoproterenol response
T3 construct: expressed in transfected cells; host or cells: CHO cells
T3 sequence (P08588 whole entry): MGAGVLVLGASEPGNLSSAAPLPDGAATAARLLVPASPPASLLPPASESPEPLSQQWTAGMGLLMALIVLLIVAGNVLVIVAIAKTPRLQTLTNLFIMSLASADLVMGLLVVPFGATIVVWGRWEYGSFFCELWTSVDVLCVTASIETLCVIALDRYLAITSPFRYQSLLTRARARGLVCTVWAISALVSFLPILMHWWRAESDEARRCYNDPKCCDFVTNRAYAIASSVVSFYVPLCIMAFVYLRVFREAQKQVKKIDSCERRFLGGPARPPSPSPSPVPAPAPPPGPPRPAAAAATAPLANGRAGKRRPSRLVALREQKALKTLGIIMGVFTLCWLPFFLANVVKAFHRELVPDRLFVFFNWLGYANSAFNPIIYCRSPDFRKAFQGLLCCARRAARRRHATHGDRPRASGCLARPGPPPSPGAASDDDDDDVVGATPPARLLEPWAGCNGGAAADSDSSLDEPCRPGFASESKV
Method: as §1, §2, §3, §4

T1 sequence (P07550 whole entry): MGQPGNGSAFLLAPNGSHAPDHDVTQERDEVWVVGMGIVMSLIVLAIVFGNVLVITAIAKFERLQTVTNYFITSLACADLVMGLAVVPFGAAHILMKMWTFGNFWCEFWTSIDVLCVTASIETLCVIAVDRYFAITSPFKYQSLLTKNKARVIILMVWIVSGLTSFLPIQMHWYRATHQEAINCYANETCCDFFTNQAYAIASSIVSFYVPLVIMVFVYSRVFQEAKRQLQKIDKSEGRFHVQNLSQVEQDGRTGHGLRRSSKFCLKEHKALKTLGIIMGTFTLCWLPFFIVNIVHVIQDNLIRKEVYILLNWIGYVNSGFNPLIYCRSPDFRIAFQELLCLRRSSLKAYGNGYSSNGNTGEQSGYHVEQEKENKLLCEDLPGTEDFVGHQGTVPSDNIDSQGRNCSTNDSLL

beta-2 IA (maximal response relative to isoproterenol at 10^-5 M) [1] | EC50 [2] [nM] | beta-3 IA (maximal response relative to isoproterenol at 10^-5 M) [2] | beta-1 IA (maximal response relative to isoproterenol at 10^-5 M) [3] | Compound | EC50 ([1]; read-out: beta-2 EC50) [nM] | EC50 ([3]; read-out: beta-1 EC50) [nM] | melting point [°C] | beta-3 activity at single concentration ([2]; at 10 μM, per cent of maximal isoproterenol response) [% at 10 μM]
 |  |  |  | CCCCOc1ccc(S(=O)(=O)N2CC(NCC(O)COc3cccc4[nH]c5ccccc5c34)C2)cc1 (stereo not shown) [Example 3, 1-[1-(4-Butoxy-benzenesulfonyl)-azetidin-3-ylamino]-3-(9H-carbazol-4-yloxy)-propan-2-ol] |  |  | 81 to 84 | 
 |  |  |  | CCCCOc1ccc(S(=O)(=O)N2CC(NCC(O)c3ccc(O)c(NS(C)(=O)=O)c3)C2)cc1 (stereo not shown) [Example 5, N-(5-{2-[1-(4-Butoxy-benzenesulfonyl)-azetidin-3-ylamino]-1-hydroxy-ethyl)-2-hydroxy-phenyl)-methanesulfonamide] |  |  | 67 to 70 | 78
 |  |  |  | CCCCOc1ccc(S(=O)(=O)N2CCC(NCC(O)c3ccc(O)c(NS(C)(=O)=O)c3)C2)cc1 (stereo not shown) [Example 6, N-(5-{2-[1-(4-Butoxy-benzenesulfonyl)-pyrrolidin-3-ylamino]-1-hydroxy-ethyl}-2-hydroxy-phenyl)-methanesulfonamide] |  |  | 95 to 98 | 
 |  |  |  | CCCCOc1ccc(S(=O)(=O)N2CCC(NC[C@H](O)COc3cccc4[nH]c5ccccc5c34)C2)cc1 (stereo partly drawn) [Example 7, (2S)-1-[1-(4-Butoxy-benzenesulfonyl)-pyrrolidin-3-ylamino]-3-(9H-carbazol-4-yloxy)-propan-2-ol] |  |  | 118 to 119 | 
 | 800 | 0.75 |  | O=c1[nH]c2cccc(OC[C@@H](O)CNC3CCN(S(=O)(=O)c4cccc5nsnc45)CC3)c2[nH]1 [Example 8, 4-{(2S)-3-[1-(Benzo[1,2,5]thiadiazole-4-sulfonyl)-piperidin-4-ylamino]-2-hydroxy-propoxy}-1,3-dihydro-benzoimidazol-2-one] |  |  |  | 
(0.03) | 60 | 0.88 | (0.1) | COc1ccc(S(=O)(=O)N2CCC(NC[C@H](O)COc3cccc4[nH]c5ccccc5c34)CC2)cc1 [Example 15, (2S)-1-(9H-Carbazol-4-yloxy)-3-[1-(4-methoxy-benzenesulfonyl)-piperidin-4-ylamino]-propan-2-ol] |  |  |  | 
(0.01) | 80 | 0.87 | (0.3) | COc1ccc(S(=O)(=O)N2CCC(NC[C@H](O)COc3cccc4[nH]c(=O)[nH]c34)CC2)cc1OC [Example 20, 4-{(2S)-3-[1-(3,4-Dimethoxy-benzenesulfonyl)-piperidin-4-ylamino]-2-hydroxy-propoxy}-1,3-dihydro-benzoimidazol-2-one] |  |  |  | 
(0.02) | 20 | 1.2 | (0.1) | COc1ccc(S(=O)(=O)N2CCC(NC[C@H](O)COc3cccc4[nH]c5ccccc5c34)CC2)cc1OC [Example 21, (2S)-1-(9H-Carbazol-4-yloxy)-3-[1-(3,4-dimethoxy-benzenesulfonyl)-piperidin-4-ylamino]-propan-2-ol] |  |  |  | 
 | 100 | 0.88 |  | CS(=O)(=O)Nc1cc(C(O)CNC2CCN(S(=O)(=O)c3ccc4oc5ccccc5c4c3)CC2)ccc1O (stereo not shown) [Example 23, N-(5-(2-[1-(Dibenzofuran-2-sulfonyl)-piperidin-4-ylamino]-1-hydroxy-ethyl}-2-hydroxy-phenyl)-methanesulfonamide] |  |  |  | 

Compound | beta-2 IA (maximal response relative to isoproterenol at 10^-5 M) [1] | EC50 [2] [nM] | beta-3 IA (maximal response relative to isoproterenol at 10^-5 M) [2] | beta-1 IA (maximal response relative to isoproterenol at 10^-5 M) [3] | EC50 ([1]; read-out: beta-2 EC50) [nM] | EC50 ([3]; read-out: beta-1 EC50) [nM] | melting point [°C] | beta-3 activity at single concentration ([2]; at 10 μM, per cent of maximal isoproterenol response) [% at 10 μM]
CCCCOc1ccc(S(=O)(=O)N2CC(NC[C@H](O)COc3ccc(O)cc3)C2)cc1 [Example 1, 4-{(2S)-3-[1-(4-Butoxy-benzenesulfonyl)-azetidin-3-ylamino]-2-hydroxy-propoxy}-phenol] | 0.39 | 30 | 0.82 | 0.49 | 900 | 1600 | 55 to 58 | 
CCCCOc1ccc(S(=O)(=O)N2CCC(NC[C@H](O)COc3cccc4[nH]c(=O)[nH]c34)CC2)cc1 [Example 9, 4-((2S)-3-[1-(4-Butoxy-benzenesulfonyl)-piperidin-4-ylamino]-2-hydroxy-propoxy}-1,3-dihydro-benzoimidazol-2-one] |  | 500 | 0.8 |  |  |  |  | 
CCCCOc1ccc(S(=O)(=O)N2CCC(NC[C@H](O)COc3cccc4[nH]c5ccccc5c34)CC2)cc1 [Example 14, (2S)-1-[1-(4-Butoxy-benzenesulfonyl)-piperidin-4-ylamino]-3-(9H-carbazol-4-yloxy)-propan-2-ol] | (0.07) | 850 | 0.74 | (0.04) |  |  |  | 

— US6649603B2, “Cyclylamine sulfonamides as β3-adrenergic receptor agonists” (Wyeth, priority 2000, dated 2003)
